Reference: patent publication US20230212523A1, “CULTURE MEDIUM FOR LARYNGEAL CANCER EPITHELIAL CELLS, CULTURE METHOD, AND APPLICATION THEREOF” (CAS (Hefei) Institute of Technology Innovation, priority 2020, published 2023)

The molecules below were run on primary laryngeal cancer cells (No. 0S0064) (assay: Effects of different factors added to basic medium BM on proliferation of primary laryngeal cancer cells (cell count)). Details: factor added to BM, in specific concentration ranges; 10 days of culture on irradiated NIH-3T3; FIGS. 1A-1F.
Format: cell-based, human
Protocol: The cultured NIH-3T3 cells (purchased from ATCC, and cultured in DMEM culture solution containing 10% fetal bovine serum) were digested with 0.25% trypsin (purchased from Thermo Fisher), and the digestion was terminated by using DMEM culture solution (purchased from Corning) containing 5%(v/v) fetal bovine serum (purchased from ExCell Biotech Co., Ltd.), 100 U/mL penicillin and 100 μg/mL streptomycin; the resultant was collected into a 15 mL centrifuge tube and centrifuged at 1500 rpm for 4 minutes, and then the supernatant was discarded. The centrifuged cell sediments were resuspended in the above DMEM culture solution containing 10% fetal bovine serum and were counted with a flow imaging counter (JIMBIO FIL, Jiangsu Jimbio Technology Co., Ltd.). The cells were irradiated with γ-ray of 35 Gy irradiation dose, and then were inoculated in a culture vessel at a density of 2×10^4 cells/cm^2. The cells were incubated in a 37° C. incubator until the cells adhere to the wall. Before the inoculation of primary cells, the culture medium was removed from the culture vessel.
Preparation of basic medium (abbreviated as BM): BM was prepared by adding 0.2 vol. % of Primocin (purchased from Invivogen, with a concentration of 50 mg/mL) to the commercial DMEM/F-12 medium to provide a final concentration of 100 μg/mL.
Next, different kinds and concentrations of additive factors (Table 3) were added to the basic medium (BM), so as to prepare culture mediums for laryngeal cancer epithelial cells containing different additive components.
The culture mediums with different components were added at a volume of 500 μl/well to 48-well plates which were pre-laid with γ-ray irradiated NIH-3T3 cells. Laryngeal cancer cells (No. 0S0064) isolated from laryngeal cancer tissue according to the same method as described in Example 1 were inoculated at a cell count of 4×10^4cells/well in the above-mentioned 48-well culture plates which were pre-laid with γ-ray irradiated NIH-3T3 cells. After surface disinfection, the plates were placed in a 37° C., 5% CO2 incubator (purchased from Thermo Fisher), such that equal numbers of freshly isolated laryngeal cancer cells (No. 0S0064) were cultured under different medium formulations. The culture mediums were replaced and the trophoblastic cells were supplemented every 4 days. after the start of culture. After 10 days of culture, cell counts were performed. The basic medium (BM) without addition of any additive was used as the experimental control.
As shown in the figures, adding different concentrations of different factors according to Table 3 to BM would result in different effects on cell proliferation.

| Molecule | effect on cell proliferation (ratio of cell number to that in basic medium BM) |
| --- | --- |
| CN1C(=O)C(c2c(F)cccc2F)N(C)c2nc(Nc3ccc(S(N)(=O)=O)cc3)ncc21 (stereo not drawn) [Compound 1, 4-((7-(2,6-difluorophenyl)-5,8-dimethyl-6-oxo-5,6,7,8-tetrahydropteridin-2-yl)amino)benzsulfamide] | certain promoting effects on cell proliferation |
| Cc1cccc(-c2nn(C(=S)Nc3ccccc3)cc2-c2ccnc3ccccc23)n1 [Compound A83-C1, A83-C1, reference compound] | certain promoting effects on cell proliferation |
| C[C@@H](N)[C@H]1CC[C@H](C(=O)Nc2ccncc2)CC1 [Compound Y27632, Y27632, reference compound] | certain promoting effects on cell proliferation |
| hepatocyte growth factor: growth factor from Sino Biological | certain promoting effects on cell proliferation |
| insulin-like growth factor 1: growth factor from Sino Biological | certain promoting effects on cell proliferation |
| fibroblast growth factor 7: growth factor from Sino Biological (protein, UniProt P21781 32-194, looked up) Fibroblast growth factor 7: CNDMTPEQMATNVNCSSPERHTRSYDYMEGGDIRVRRLFCRTQWYLRIDKRGKVKGTQEMKNNYNIMEIRTVAVGIVAIKGVESEFYLAMNKEGKLYAKKECNEDCNFKELILENHYNTYASAKWTHNGGEMFVALNQKGIPVRGKKTKKEQKTAHFLPMAIT | certain promoting effects on cell proliferation |
